Patent US7381746B2, “2-Aminobicyclo[3.1.0]hexane-2,6-dicarboxylic acid derivative” (Taisho Pharmaceutical Co., Ltd., priority 2003, dated 2008)

| SMILES | melting point [°C] |
| --- | --- |
| N[C@]1(C(=O)O)[C@H]2[C@@H](C[C@H]1SCc1ccc(F)cc1)[C@]2(F)C(=O)O [Compound 4, (1R,2S,3R,5R,6R)-2-amino-3-(4-fluorobenzylsulfanyl)-6-fluorobicyclo[3.1.0]hexane-2,6-dicarboxylic acid] | > 243 |
| N[C@]1(C(=O)O)[C@H]2[C@@H](C[C@H]1SCc1cccc(C(F)(F)F)c1)[C@]2(F)C(=O)O [Compound 6, (1R,2S,3R,5R,6R)-2-amino-3-(3-trifluoromethylbenzylsulfanyl)-6-fluorobicyclo[3.1.0]hexane-2,6-dicarboxylic acid] | > 271 |
| COc1ccc(CS[C@@H]2C[C@@H]3[C@H]([C@]2(N)C(=O)O)[C@@]3(F)C(=O)O)cc1 [Compound 3, (1R,2S,3R,5R,6R)-2-amino-3-(4-methoxybenzylsulfanyl)-6-fluorobicyclo[3.1.0]hexane-2,6-dicarboxylic acid] | > 240 |
| N[C@]1(C(=O)O)[C@H]2[C@@H](C[C@H]1SCc1ccccc1-c1ccccc1)[C@]2(F)C(=O)O [Compound 2, (1R,2S,3R,5R,6R)-2-amino-3-(2-phenylbenzylsulfanyl)-6-fluorobicyclo[3.1.0]hexane-2,6-dicarboxylic acid] | > 230 |
| N[C@]1(C(=O)O)[C@H]2[C@@H](C[C@H]1SCc1cccs1)[C@]2(F)C(=O)O [Compound 1, (1R,2S,3R,5R,6R)-2-amino-3-(thiophene-2-ylmethylsulfanyl)-6-fluorobicyclo[3.1.0]hexane-2,6-dicarboxylic acid] | > 230 |
| CC(C)(C)c1ccc(CS[C@@H]2C[C@@H]3[C@H]([C@]2(N)C(=O)O)[C@@]3(F)C(=O)O)cc1 [Compound 5, (1R,2S,3R,5R,6R)-2-amino-3-(4-t-butylbenzylsulfanyl)-6-fluorobicyclo[3.1.0]hexane-2,6-dicarboxylic acid] | > 271 |

Next, values leading:

| melting point [°C] | SMILES |
| --- | --- |
| > 289 | N[C@]1(C(=O)O)[C@@H]2[C@@H](C[C@H]1SCc1ccc(Cl)c(Cl)c1)[C@H]2C(=O)O [Compound 8, (1R,2S,3R,5R,6R)-2-amino-3-(3,4-dichlorobenzylsulfanyl)-bicyclo[3.1.0]hexane-2,6-dicarboxylic acid] |
| > 235 | N[C@]1(C(=O)O)[C@H]2[C@@H](C[C@H]1Sc1ccc(Cl)c(Cl)c1)[C@]2(F)C(=O)O [Compound 12, (1R,2S,3R,5R,6R)-2-amino-3-(3,4-dichlorophenylsulfanyl)-6-fluorobicyclo[3.1.0]hexane-2,6-dicarboxylic acid] |
| > 307 | CC(S[C@@H]1C[C@@H]2[C@H]([C@]1(N)C(=O)O)[C@@]2(F)C(=O)O)c1ccccc1 (stereo partly drawn) [Compound 15, (1R,2S,3R,5R,6R)-2-amino-3-(1-phenyl-ethylsulfanyl)-6-fluorobicyclo[3.1.0]hexane-2,6-dicarboxylic acid] |
| > 256 | N[C@@H]1C[C@@H]2[C@H]([C@]1(N)C(=O)O)[C@@]2(F)C(=O)O [Compound 17, (1R,2R,3R,5R,6R)-2,3-diamino-6-fluorobicyclo[3.1.0]hexane-2,6-dicarboxylic acid] |
| > 220 | N[C@]1(C(=O)O)[C@H]2[C@@H](C[C@H]1SCc1ccc(Cl)c(Cl)c1)[C@]2(F)C(=O)O [Compound 9, (1R,2S,3R,5R,6R)-2-amino-3-(3,4-dichlorobenzylsulfanyl)-6-fluorobicyclo[3.1.0]hexane-2,6-dicarboxylic acid] |
| > 190 | N[C@]1(C(=O)O)[C@H]2[C@@H](C[C@H]1NCc1ccc(Cl)c(Cl)c1)[C@]2(F)C(=O)O [Compound 18, (1R,2R,3R,5R,6R)-2-amino-3-(3,4-dichlorobenzylamino)-6-fluorobicyclo[3.1.0]hexane-2,6-dicarboxylic acid] |
| > 243 | N[C@]1(C(=O)O)[C@H]2[C@@H](C[C@H]1SC(c1ccc(F)cc1)c1ccc(F)cc1)[C@]2(F)C(=O)O [Compound 16, (1R,2S,3R,5R,6R)-2-amino-3-[bis-(4-fluorophenyl)methylsulfanyl]-6-fluorobicyclo[3.1.0]hexane-2,6-dicarboxylic acid] |
| > 234 | N[C@]1(C(=O)O)[C@H]2[C@@H](C[C@H]1SCc1c(F)ccc(Cl)c1F)[C@]2(F)C(=O)O [Compound 13, (1R,2S,3R,5R,6R)-2-amino-3-(3-chloro-2,6-difluorobenzylsulfanyl)-6-fluorobicyclo[3.1.0]hexane-2,6-dicarboxylic acid] |
| > 280 | N[C@]1(C(=O)O)[C@H]2[C@@H](C[C@H]1SCc1ccc3ccccc3c1Br)[C@]2(F)C(=O)O [Compound 7, (1R,2S,3R,5R,6R)-2-amino-3-(1-bromo-naphthalene-2-ylmethylsulfanyl)-6-fluorobicyclo[3.1.0]hexane-2,6-dicarboxylic acid] |
